Measurements published in patent US12421252B2, “Spiro (isobenzofuranazetidine) compounds for the treatment of autoimmune disease” (Hoffmann-La Roche Inc., priority 2020, dated 2025).
pIC50: −log10 of the molar value. Values belong to the compound of their own block, whether it stands above or below them.

Legend:
hTLR9 = molecular target: T1, hTLR9 (Homo sapiens, UniProt Q9NR96); parameters: host or cells: HEK; conditions: data disclosed in US20150105370; read-out: HEK/hTLR9 IC50; cited from earlier work
T1 sequence (Q9NR96 26-1032): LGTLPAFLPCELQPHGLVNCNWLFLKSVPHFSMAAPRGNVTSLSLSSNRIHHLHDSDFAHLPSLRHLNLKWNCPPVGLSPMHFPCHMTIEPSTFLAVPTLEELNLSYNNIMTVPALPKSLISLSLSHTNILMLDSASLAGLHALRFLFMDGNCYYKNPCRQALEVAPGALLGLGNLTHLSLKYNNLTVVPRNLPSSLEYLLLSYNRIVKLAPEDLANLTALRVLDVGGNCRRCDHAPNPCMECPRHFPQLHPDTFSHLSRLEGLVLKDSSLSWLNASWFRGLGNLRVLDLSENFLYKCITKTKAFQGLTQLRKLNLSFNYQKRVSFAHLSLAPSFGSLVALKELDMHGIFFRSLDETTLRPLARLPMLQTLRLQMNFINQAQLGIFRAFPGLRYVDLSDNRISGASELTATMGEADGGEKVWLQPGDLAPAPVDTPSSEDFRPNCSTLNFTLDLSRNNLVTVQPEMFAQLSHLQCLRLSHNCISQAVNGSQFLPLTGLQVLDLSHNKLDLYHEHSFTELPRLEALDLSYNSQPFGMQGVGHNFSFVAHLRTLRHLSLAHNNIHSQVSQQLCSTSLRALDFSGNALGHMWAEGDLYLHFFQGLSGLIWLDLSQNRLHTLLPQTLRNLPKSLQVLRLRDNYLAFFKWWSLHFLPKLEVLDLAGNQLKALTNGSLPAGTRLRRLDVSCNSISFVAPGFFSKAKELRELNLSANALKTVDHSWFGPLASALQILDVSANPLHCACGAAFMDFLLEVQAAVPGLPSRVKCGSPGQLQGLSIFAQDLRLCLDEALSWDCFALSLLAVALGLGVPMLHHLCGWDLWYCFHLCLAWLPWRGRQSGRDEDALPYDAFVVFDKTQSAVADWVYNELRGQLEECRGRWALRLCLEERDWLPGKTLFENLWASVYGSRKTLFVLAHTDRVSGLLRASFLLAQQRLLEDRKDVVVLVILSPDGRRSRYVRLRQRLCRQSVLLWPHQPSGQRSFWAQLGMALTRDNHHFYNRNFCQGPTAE

hERG channel = molecular target: T2, hERG channel (Homo sapiens, UniProt Q12809); assay: hERG channel inhibition assay (patch-clamp, CHO hERG cells); assay type: cell-based; conditions: CHO hERG cells, whole-cell patch-clamp; for IC20: human, CHO cells stably expressing hERG
T2 construct: expressed in transfected cells
T2 sequence (Q12809 whole entry): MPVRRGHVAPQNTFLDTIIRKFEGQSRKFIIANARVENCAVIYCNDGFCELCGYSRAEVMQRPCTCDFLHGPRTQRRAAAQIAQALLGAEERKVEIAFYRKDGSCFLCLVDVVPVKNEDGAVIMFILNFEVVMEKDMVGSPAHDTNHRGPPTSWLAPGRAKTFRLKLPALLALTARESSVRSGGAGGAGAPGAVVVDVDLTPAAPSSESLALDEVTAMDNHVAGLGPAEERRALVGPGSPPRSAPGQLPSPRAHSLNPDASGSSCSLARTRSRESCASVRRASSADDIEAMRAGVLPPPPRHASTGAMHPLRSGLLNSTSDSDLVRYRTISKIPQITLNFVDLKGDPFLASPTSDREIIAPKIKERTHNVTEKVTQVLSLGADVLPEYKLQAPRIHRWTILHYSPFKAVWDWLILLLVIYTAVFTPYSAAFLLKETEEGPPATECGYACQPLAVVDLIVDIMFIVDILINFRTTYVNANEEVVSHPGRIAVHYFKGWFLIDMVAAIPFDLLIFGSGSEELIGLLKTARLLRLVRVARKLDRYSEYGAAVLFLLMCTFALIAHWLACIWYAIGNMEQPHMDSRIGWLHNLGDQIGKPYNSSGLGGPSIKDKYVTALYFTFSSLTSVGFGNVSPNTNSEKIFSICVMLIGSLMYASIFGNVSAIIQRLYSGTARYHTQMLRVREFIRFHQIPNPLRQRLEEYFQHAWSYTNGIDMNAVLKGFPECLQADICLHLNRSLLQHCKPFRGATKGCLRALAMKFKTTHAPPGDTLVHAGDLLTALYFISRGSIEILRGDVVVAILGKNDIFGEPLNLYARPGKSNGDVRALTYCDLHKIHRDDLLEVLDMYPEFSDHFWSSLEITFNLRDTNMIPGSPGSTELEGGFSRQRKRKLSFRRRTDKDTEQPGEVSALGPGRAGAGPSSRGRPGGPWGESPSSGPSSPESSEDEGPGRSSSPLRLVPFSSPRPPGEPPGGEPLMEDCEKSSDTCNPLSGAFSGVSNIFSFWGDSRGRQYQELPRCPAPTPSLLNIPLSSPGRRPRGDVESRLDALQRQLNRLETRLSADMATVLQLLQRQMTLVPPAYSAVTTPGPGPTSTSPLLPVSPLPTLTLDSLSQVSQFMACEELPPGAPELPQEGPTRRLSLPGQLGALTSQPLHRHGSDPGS
Protocol: hERG Channel Inhibition Assay:
The hERG K+ channels were cloned in humans and stably expressed in a CHO (Chinese hamster ovary) cell line. CHOhERG cells were used for patch-clamp (voltage-clamp, whole-cell) experiments. Cells were stimulated by a voltage pattern to activate hERG channels and conduct IKhERG Currents (rapid delayed outward rectifier potassium current of the hERG channel). After the cells were stabilized for a few minutes, the amplitude and kinetics of IKhERG were recorded at a stimulation frequency of 0.1 Hz, (6 bpm). Thereafter, the test compound was added to the preparation at increasing concentrations. For each concentration, an attempt was made to reach a steady-state effect, usually, this was achieved within 3-10 min at which time the next highest concentration was applied. The amplitude and kinetics of IKhERG are recorded in each concentration of the drug which were compared to the control values (taken as 100%). (references: Redfern W S, Carlsson L, Davis A S, Lynch W G, MacKenzie I, Palethorpe S, Siegl P K, Strang I, Sullivan A T, Wallis R, Camm A J, Hammond T G. 2003; Relationships between preclinical cardiac electrophysiology, clinical QT interval prolongation and torsade de pointes for a broad range of drugs: evidence for a provisional safety margin in drug development. Cardiovasc. Res. 58:32-45, Sanguinetti M C, Tristani-Firouzi M. 2006; hERG potassium channels and cardiac arrhythmia. Nature 440:463-469, Webster R, Leishman D, Walker D. 2002; Towards a drug concentration effect relationship for QT prolongation and torsades de pointes. Curr. Opin. Drug Discov. Devel. 5:116-26).

human TLR8 = molecular target: T3, human TLR8 (Homo sapiens, UniProt Q9NR97); assay: HEK293-Blue-hTLR-8 cells assay; assay type: cell-based; conditions: HEK293-Blue-hTLR8 cells, R848 stimulation, 20 hrs, SEAP reporter; read-out: HEK/hTLR8 IC50
T3 sequence (Q9NR97 27-1041): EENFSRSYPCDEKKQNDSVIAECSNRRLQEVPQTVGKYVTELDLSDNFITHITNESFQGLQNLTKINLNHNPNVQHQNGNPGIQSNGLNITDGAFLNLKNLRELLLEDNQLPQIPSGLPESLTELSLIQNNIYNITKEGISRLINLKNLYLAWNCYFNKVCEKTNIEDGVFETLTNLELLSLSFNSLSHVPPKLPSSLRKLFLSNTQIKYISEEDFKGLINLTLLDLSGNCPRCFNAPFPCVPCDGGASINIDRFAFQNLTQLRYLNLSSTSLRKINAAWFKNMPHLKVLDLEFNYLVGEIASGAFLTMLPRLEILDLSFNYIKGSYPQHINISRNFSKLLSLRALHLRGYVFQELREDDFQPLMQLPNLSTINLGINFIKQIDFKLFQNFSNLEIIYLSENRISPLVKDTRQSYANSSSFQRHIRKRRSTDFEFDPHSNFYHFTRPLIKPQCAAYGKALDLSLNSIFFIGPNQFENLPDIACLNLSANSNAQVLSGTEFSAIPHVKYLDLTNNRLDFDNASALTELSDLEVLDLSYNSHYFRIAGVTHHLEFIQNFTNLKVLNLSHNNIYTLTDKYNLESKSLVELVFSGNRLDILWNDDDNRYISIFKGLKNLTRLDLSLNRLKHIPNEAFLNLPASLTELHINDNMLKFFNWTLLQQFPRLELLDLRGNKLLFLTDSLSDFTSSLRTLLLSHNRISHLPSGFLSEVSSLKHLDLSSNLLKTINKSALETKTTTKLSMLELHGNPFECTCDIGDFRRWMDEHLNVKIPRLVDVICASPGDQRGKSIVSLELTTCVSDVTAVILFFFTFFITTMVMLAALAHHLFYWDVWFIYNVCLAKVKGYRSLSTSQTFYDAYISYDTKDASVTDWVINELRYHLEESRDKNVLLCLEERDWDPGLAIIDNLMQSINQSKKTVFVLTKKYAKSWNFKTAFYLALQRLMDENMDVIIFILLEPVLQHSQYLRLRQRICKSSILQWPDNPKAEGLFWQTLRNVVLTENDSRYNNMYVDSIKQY
Text: HEK293-Blue-hTLR-8 cells assay:
A stable HEK293-Blue-hTLR-8 cell line was purchased from InvivoGen (Cat. #: hkb-htlr8, San Diego, California, USA). These cells were originally designed for studying the stimulation of human TLR8 by monitoring the activation of NF-κB. A SEAP (secreted embryonic alkaline phosphatase) reporter gene was placed under the control of the IFN-β minimal promoter fused to five NF-κB and AP-1-binding sites. The SEAP was induced by activating NF-κB and AP-1 via stimulating HEK-Blue hTLR8 cells with TLR8 ligands. Therefore the reporter expression was declined by TLR8 antagonist under the stimulation of a ligand, such as R848, for incubation of 20 hrs. The cell culture supernatant SEAP reporter activity was determined using QUANTI-Blue™kit (Cat. #: rep-qb1, Invivogen, San Diego, Ca, USA) at a wavelength of 640 nm, a detection medium that turns purple or blue in the presence of alkaline phosphatase.
HEK293-Blue-hTLR8 cells were incubated at a density of 250,000˜450,000 cells/mL in a volume of 170 μL in a 96-well plate in Dulbecco's Modified Eagle's medium (DMEM) containing 4.5 g/L glucose, 50 U/mL penicillin, […], […], 2 mM L-glutamine, 10% (v/v) heat-inactivated fetal bovine serum with addition of 20 μL test compound in a serial dilution in the presence of final DMSO at 1% and 10 μL of 60 uM R848 in above DMEM, perform incubation under 37° C. in a CO2 incubator for 20 hrs. Then 20 μL of the supernatant from each well was incubated with 180 μL Quanti-blue substrate solution at 37° C. for 2 hrs and the absorbance was read at 620-655 nm using a spectrophotometer. The signaling pathway that TLR8 activation leads to downstream NF-κB activation has been widely accepted, and therefore similar reporter assay was modified for evaluating TLR8 antagonist.

CYP2C9 = molecular target: T4, CYP2C9 (Homo sapiens, UniProt P11712); assay: CYP inhibition assay in human liver microsome, CYP2C9; assay type: in vitro ADME; conditions: percentage inhibition, substrate Diclofenac 5 μM, <0: not or weak inhibitor
T4 construct: tissue BD-Gentest 452117; host or cells: human liver microsomes
T4 sequence (P11712 whole entry): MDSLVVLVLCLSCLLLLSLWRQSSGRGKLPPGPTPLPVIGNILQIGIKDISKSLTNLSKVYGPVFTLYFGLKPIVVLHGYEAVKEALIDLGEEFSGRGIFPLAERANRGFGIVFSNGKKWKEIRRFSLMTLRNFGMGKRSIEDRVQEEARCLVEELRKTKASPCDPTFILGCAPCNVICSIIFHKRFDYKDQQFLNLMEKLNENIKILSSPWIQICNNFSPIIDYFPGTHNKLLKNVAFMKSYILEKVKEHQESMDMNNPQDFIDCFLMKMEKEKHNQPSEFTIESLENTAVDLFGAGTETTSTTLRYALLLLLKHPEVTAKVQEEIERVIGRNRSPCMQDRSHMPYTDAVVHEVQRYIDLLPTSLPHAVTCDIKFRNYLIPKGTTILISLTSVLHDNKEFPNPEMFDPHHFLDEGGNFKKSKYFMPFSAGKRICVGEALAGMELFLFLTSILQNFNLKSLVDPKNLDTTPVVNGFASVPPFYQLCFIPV
Protocol: (§1) This is a high throughput screening assay used for assessment of reversible inhibition of CYP2C9, CYP2D6, and CYP3A4 activity of test compounds in human liver microsome (HLM) in early discovery stage.
(§2) Procedure 10 mM DMSO stock solutions of test compounds were diluted in DMSO to generate 2 mM intermediate stock solution. 250 nL of intermediate stock solution were transferred in duplicate into 3 separate 384 well microtitre plates (assay-ready plates). A mixture of HLM and each substrate was made up. 45 μL of HLM substrate mix was then transferred to each well of an assay ready plate and mixed. The negative (solvent) and positive controls (standard inhibitor for each CYP) were included in each assay ready plate. The assay ready plate was warmed to 37° C. in an incubator over 10 minutes. 5 μL pre-warmed NADPH regenerating system was added to each incubation well to start the reaction. Final incubation volume was 50 μL. The assay plate then was placed back in the 37° C. incubator. After incubation (10 minutes for CYP2D6) for 5 minutes, incubates were quenched by addition of 50 μL 100% acetonitrile containing internal standards (400 ng/mL 13C6-4′-OH-Diclofenac, 20 ng/mL D3-Dextrorphan and 20 ng/mL D4-1′OH-Midazolam). The supernatants were collected for RapidFire/MS/MS analysis.
(§3) RapidFire online solid phase extraction/sample injection system (Agilent) coupled with API4000 triple quadrupole mass spectrometer (AB Sciex) were used for sample analysis. The mobile phase composed of acetonitrile and water supplemented with 0.1% formic acid. A C4 solid phase extraction cartridge is used for sample separation. MS detection is achieved in positive ion MRM mode.
(§4) Data analysis Peak areas for substrate, metabolite and internal standard are determined using the RapidFire integrator software (version 3.6.12009.12296). Peak area ratios (PAR) of metabolite and internal standard (stable-labelled metabolite) are then calculated. The measurement window for each experiment is then defined: PAR (0% activity)=average PAR for all incubations containing concentrated inhibitor; Par (100% activity)=average PAR for all incubations containing no inhibitor (DMSO controls); % Activity (test inhibitor)=[PAR (test inhibitor)-PAR (0% activity)]/[PAR (100% activity)-PAR (0% activity)]; % Inhibition (test inhibitor)=100-% Activity (test inhibitor).

CYP3A4 = molecular target: T5, CYP3A4 (Homo sapiens, UniProt P08684); assay: CYP inhibition assay in human liver microsome, CYP3A4; assay type: in vitro ADME; conditions: percentage inhibition, substrate Midazolam 5 μM, <0: not or weak inhibitor
T5 construct: tissue BD-Gentest 452117; host or cells: human liver microsomes
T5 sequence (P08684 whole entry): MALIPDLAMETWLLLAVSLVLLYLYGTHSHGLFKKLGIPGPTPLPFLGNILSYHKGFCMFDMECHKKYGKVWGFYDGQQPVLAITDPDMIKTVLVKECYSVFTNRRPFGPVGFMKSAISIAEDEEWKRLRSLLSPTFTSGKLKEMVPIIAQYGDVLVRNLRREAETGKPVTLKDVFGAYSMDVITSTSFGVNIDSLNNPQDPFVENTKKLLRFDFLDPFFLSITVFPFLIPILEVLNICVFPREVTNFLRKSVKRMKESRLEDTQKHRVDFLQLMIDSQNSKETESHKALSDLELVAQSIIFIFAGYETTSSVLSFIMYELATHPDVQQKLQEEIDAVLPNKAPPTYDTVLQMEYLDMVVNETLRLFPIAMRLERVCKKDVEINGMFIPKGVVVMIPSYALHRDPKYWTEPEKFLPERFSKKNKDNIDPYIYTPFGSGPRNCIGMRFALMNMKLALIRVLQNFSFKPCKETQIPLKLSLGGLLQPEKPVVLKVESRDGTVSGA
Protocol: as §1, §2, §3, §4

CYP2D6 = molecular target: T6, CYP2D6 (Homo sapiens, UniProt P10635); assay: CYP inhibition assay in human liver microsome, CYP2D6; assay type: in vitro ADME; conditions: percentage inhibition, substrate Dextromethorphan 5 μM, <0: not or weak inhibitor
T6 construct: tissue BD-Gentest 452117; host or cells: human liver microsomes
T6 sequence (P10635 whole entry): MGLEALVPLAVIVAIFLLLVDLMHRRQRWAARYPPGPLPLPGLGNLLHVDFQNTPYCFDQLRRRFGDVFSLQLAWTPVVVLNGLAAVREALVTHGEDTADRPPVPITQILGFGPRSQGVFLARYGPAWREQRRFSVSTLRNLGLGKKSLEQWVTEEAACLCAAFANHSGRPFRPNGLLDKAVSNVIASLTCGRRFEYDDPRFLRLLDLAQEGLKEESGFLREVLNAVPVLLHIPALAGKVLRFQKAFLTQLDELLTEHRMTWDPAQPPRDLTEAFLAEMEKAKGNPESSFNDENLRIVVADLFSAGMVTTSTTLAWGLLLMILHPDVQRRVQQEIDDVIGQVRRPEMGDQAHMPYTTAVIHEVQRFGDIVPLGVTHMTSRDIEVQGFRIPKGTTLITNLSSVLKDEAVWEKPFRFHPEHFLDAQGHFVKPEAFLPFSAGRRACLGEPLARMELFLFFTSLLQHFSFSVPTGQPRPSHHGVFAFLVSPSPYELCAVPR
Protocol: as §1, §2, §3, §4

SMILES: C[C@@H]1CN(c2ccc(C#N)c3ncccc23)C[C@H](CN2CC(NS(=O)(=O)c3ccc(F)cc3)C2)O1 [ER-894155]
pIC50 (hTLR9): < 5.00

SMILES: [2H]c1ccc2c(N3C[C@H](CN4CC5(C4)OCc4cc(N6CC(N)C6)ccc45)O[C@H](C)C3)ccc(C#N)c2n1 [Example 14, 5-[(2S,6R)-2-[[6-(3-aminoazetidin-1-yl)spiro[1H-isobenzofuran-3,3′-azetidine]-1′-yl]methyl]-6-methyl-morpholin-4-yl]-2-deuterio-quinoline-8-carbonitrile]
pIC50 (hERG channel): < 4.70
IC20 (hERG channel): > 10 µM

pIC50 (human TLR8): 8.05
SMILES: [2H]c1ccc2c(N3C[C@H](CN4CC5(C4)OCc4cc(N6CC7(CNCCO7)C6)ccc45)O[C@H](C)C3)ccc(C#N)c2n1 [Example 15, 2-deuterio-5-[(2R,6S)-2-methyl-6-[[6-(5-oxa-2,8-diazaspiro[3.5]nonan-2-yl)spiro[1H-isobenzofuran-3,3′-azetidine]-1′-yl]methyl]morpholin-4-yl]quinoline-8-carbonitrile]

SMILES: Cc1nn(C)cc1S(=O)(=O)NC1CCN(C[C@H]2CN(c3ccc(C#N)c4ncccc34)C[C@@H](C)O2)CC1 [ER-894160]
pIC50 (hTLR9): < 5.00

CYP (%) 2C9 (CYP2C9): 4%
CYP (%) 3A4 (CYP3A4): 12%
CYP (%) 2D6 (CYP2D6): 5.5%
SMILES: [2H]c1ccc2c(N3C[C@H](CN4CC5(C4)OCc4cc(N6CC(C)(N)C6)ccc45)O[C@H](C)C3)ccc(C#N)c2n1 [Example 11, 5-[(2S,6R)-2-[[6-(3-amino-3-methyl-azetidin-1-yl)spiro[1H-isobenzofuran-3,3′-azetidine]-1′-yl]methyl]-6-methyl-morpholin-4-yl]-2-deuterio-quinoline-8-carbonitrile]
pIC50 (hERG channel): < 4.70
IC20 (hERG channel): 6.2 µM

CYP (%) 2C9 (CYP2C9): −8.5%
CYP (%) 3A4 (CYP3A4): −8.5%
CYP (%) 2D6 (CYP2D6): 5%
SMILES: C[C@@H]1CN(c2ccc(C#N)n3nccc23)C[C@H](CN2CC3(C2)OCc2cc(N4CC5(CN(C)C5)C4)ccc23)O1 [Example 8, 4-[(2R,6S)-2-methyl-6-[[6-(6-methyl-2,6-diazaspiro[3.3]heptan-2-yl)spiro[1H-isobenzofuran-3,3′-azetidine]-1′-yl]methyl]morpholin-4-yl]pyrazolo[1,5-a]pyridine-7-carbonitrile]

SMILES: C[C@@H]1CN(c2ccc(C#N)c3ncccc23)C[C@H](CN2CC[C@@H](NC(=O)c3ccccc3)C2)O1 [ER-894544]
pIC50 (hTLR9): < 5.21
